Test results published in ChEMBL document CHEMBL2440051, “Structure-activity relationships of lanostane-type triterpenoids from Ganoderma lingzhi as α-glucosidase inhibitors” (Bioorg Med Chem Lett, 2013).

Species on record: Homo sapiens
Test: Ratio of acarbose IC50 to compound IC50 for alpha-glucosidase (unknown origin)
For `CC(CC(=O)C[C@@H](C)[C@H]1CC(=O)[C@@]2(C)C3=C([C@@H](O)C[C@]12C)[C@@]1(C)CCC(=O)C(C)(C)[C@@H]1C[C@@H]3O)C(=O)O` (stereo partly drawn) [GANODERIC ACID DF], the Ratio IC50 was 2.5. In the case of `C[C@H](CCC=C(CO)CO)[C@H]1CC[C@@]2(C)C3=CC[C@H]4C(C)(C)C(=O)CC[C@]4(C)C3=CC[C@]12C` [GANODERIOL F], the Ratio IC50 is reported as 3. `C/C(=C\CC[C@@H](C)[C@H]1CC[C@@]2(C)C3=CC[C@H]4C(C)(C)[C@@H](O)CC[C@]4(C)C3=CC[C@]12C)CO` [GANODEROL B] showed a Ratio IC50 of 5.

Biological target: not listed separately
Test: Inhibition of alpha-glucosidase (unknown origin) using sucrose as substrate assessed as formation of glucose after 30 mins by glucose oxidase method
Design: species or system Homo sapiens
Work on `COC(=O)C(C)CC(=O)C[C@@H](C)[C@H]1CC(=O)[C@@]2(C)C3=C([C@@H](O)C[C@]12C)[C@@]1(C)CCC(=O)C(C)(C)[C@@H]1C[C@@H]3O` (stereo partly drawn) yielded an IC50 of over 600 µM. Compound `C[C@H]1O[C@H](O[C@H]2[C@H](O)[C@@H](O)[C@@H](O[C@H]3[C@H](O)[C@@H](O)C(O)O[C@@H]3CO)O[C@@H]2CO)[C@H](O)[C@@H](O)[C@@H]1N[C@H]1C=C(CO)[C@@H](O)[C@H](O)[C@H]1O` (stereo partly drawn) [ACARBOSE] has an IC50 of 522 µM. Work on `C/C(=C\C(=O)CC(C)C(=O)O)[C@H]1C[C@H](O)[C@@]2(C)C3=C(C(=O)C[C@]12C)[C@@]1(C)CCC(=O)C(C)(C)[C@@H]1C[C@@H]3O` (stereo partly drawn) [GANODERENIC ACID A] yielded an IC50 of 445 µM. For `C[C@H](CC(=O)C[C@@H](C)[C@H]1C[C@H](O)[C@@]2(C)C3=C(C(=O)C[C@]12C)[C@@]1(C)CCC(=O)C(C)(C)[C@@H]1C[C@@H]3O)C(=O)O` [GANODERIC ACID A], the IC50 was 528 µM. With `CC(CC(=O)C[C@@H](C)[C@H]1CC(=O)[C@@]2(C)C3=C(C(=O)C[C@]12C)[C@@]1(C)CC[C@H](O)C(C)(C)[C@@H]1C[C@@H]3O)C(=O)O` (stereo partly drawn) [GANODERIC ACID B] the IC50 was 464 µM. Work on `C[C@H](CC(=O)C[C@@H](C)[C@H]1CC(=O)[C@@]2(C)C3=C(C(=O)C[C@]12C)[C@@]1(C)CCC(=O)C(C)(C)[C@@H]1C[C@@H]3O)C(=O)O` [GANODERIC ACID C1] yielded an IC50 of over 600 µM. For `C[C@H](CC(=O)C[C@@H](C)[C@H]1C[C@H](O)[C@@]2(C)C3=C(C(=O)C[C@]12C)[C@@]1(C)CC[C@H](O)C(C)(C)[C@@H]1C[C@@H]3O)C(=O)O` [GANODERIC ACID C2], the IC50 was over 600 µM. For `CC(CC(=O)C[C@@H](C)[C@H]1CC(=O)[C@@]2(C)C3=C(C(=O)[C@@H](O)[C@]12C)[C@@]1(C)CC[C@H](O)C(C)(C)[C@@H]1CC3=O)C(=O)O` (stereo partly drawn) [GANODERIC ACID C6], the IC50 was over 600 µM. Work on `CC(CC(=O)C[C@@H](C)[C@H]1CC(=O)[C@@]2(C)C3=C([C@@H](O)C[C@]12C)[C@@]1(C)CCC(=O)C(C)(C)[C@@H]1C[C@@H]3O)C(=O)O` (stereo partly drawn) [GANODERIC ACID DF] yielded an IC50 of 219 µM. Compound `CC(CC(=O)C[C@@H](C)[C@H]1CC(=O)[C@@]2(C)C3=C(C(=O)C[C@]12C)[C@@]1(C)CCC(=O)C(C)(C)[C@@H]1C[C@@H]3O)C(=O)O` (stereo partly drawn) [GANODERIC ACID D] has an IC50 of over 600 µM. Compound `CC(CC(=O)C[C@@H](C)[C@H]1CC(=O)[C@@]2(C)C3=C(C(=O)[C@@H](O)[C@]12C)[C@@]1(C)CC[C@H](O)C(C)(C)[C@@H]1C[C@@H]3O)C(=O)O` (stereo partly drawn) [GANODERIC ACID G] has an IC50 of over 600 µM. With `CC(=O)O[C@@H]1C(=O)C2=C(C(=O)C[C@H]3C(C)(C)[C@@H](O)CC[C@]23C)[C@]2(C)C(=O)C[C@H]([C@H](C)CC(=O)CC(C)C(=O)O)[C@@]12C` (stereo partly drawn) [GANODERIC ACID H] the IC50 was over 600 µM. Work on `CC(CC(=O)C[C@@H](C)[C@H]1C[C@H](O)[C@@]2(C)C3=C(C(=O)C[C@]12C)[C@@]1(C)CCC(=O)C(C)(C)[C@@H]1CC3=O)C(=O)O` (stereo partly drawn) [GANODERIC ACID J] yielded an IC50 of over 600 µM. With `CC(=O)O[C@@H]1C(=O)C2=C([C@@H](O)C[C@H]3C(C)(C)[C@@H](O)CC[C@]23C)[C@]2(C)C(=O)C[C@H]([C@H](C)CC(=O)CC(C)C(=O)O)[C@@]12C` (stereo partly drawn) [GANODERIC ACID K] the IC50 was over 600 µM. For `C[C@H](CCC=C(CO)CO)[C@H]1CC[C@@]2(C)C3=CC[C@H]4C(C)(C)C(=O)CC[C@]4(C)C3=CC[C@]12C` [GANODERIOL F], the IC50 was 208 µM. `C[C@H](CC[C@H](O)[C@](C)(O)CO)[C@H]1CC[C@@]2(C)C3=CC[C@H]4C(C)(C)C(=O)CC[C@]4(C)C3=CC[C@]12C` [GANODERMANONTRIOL] showed an IC50 of 540 µM. `C/C(=C\CC[C@@H](C)[C@H]1CC[C@@]2(C)C3=CC[C@H]4C(C)(C)[C@@H](O)CC[C@]4(C)C3=CC[C@]12C)CO` [GANODEROL B] showed an IC50 of 110 µM. In the case of `CC(CC(=O)C[C@@H](C)[C@H]1C[C@H](O)[C@@]2(C)C3=C(C(=O)C[C@]12C)[C@@]1(C)CC[C@H](O)C(C)(C)[C@@H]1CC3)C(=O)O` (stereo partly drawn) [GANOLUCIDIC ACID B], the IC50 is reported as over 600 µM. In the case of `COC(=O)C(C)CC(=O)C[C@@H](C)[C@H]1C[C@H](O)[C@@]2(C)C3=C(C(=O)C[C@]12C)[C@@]1(C)CCC(=O)C(C)(C)[C@@H]1C[C@@H]3O` (stereo partly drawn) [METHYL GANODERATE A], the IC50 is reported as over 600 µM. Work on `COC(=O)C(C)CC(=O)/C=C(\C)[C@H]1C[C@H](O)[C@@]2(C)C3=C(C(=O)C[C@]12C)[C@@]1(C)CCC(=O)C(C)(C)[C@@H]1C[C@@H]3O` (stereo partly drawn) [METHYL GANODERENATE A] yielded an IC50 of over 600 µM.
